One may read the IC50 as the concentration at which inhibition is half-maximal.

In data set [1] the target is Stat5:Stat5 DNA-binding activity. In words: EMSA of Stat5:Stat5 DNA-binding activity in nuclear extracts of EGF-stimulated NIH3T3/hEGFR. It counts as biochemical, mouse. The note with it: Fig. 1C, MGFe probe, 30 min. How it is done:
(§1) These studies were carried out as previously described using the ^32P-labeled oligonucleotide probes, hSIE (high affinity sis-inducible element from the c-fos gene, m67 variant, 5^′-[…]) that binds Stat1 and Stat3 [11, 12] and the mammary gland factor element (MGFe) from the bovine β–casein gene promoter (sense strand, 5^′-[…]) that binds Stat5 and Stat1 [11, 12]. Details are presented in Supplementary Information, “Methods”. […]
(§2) min, prior to incubation with the radiolabeled probe for 30 min at 30 °C and subjecting to EMSA analysis.
(§3) In another case, the nuclear extract was pre-incubated with the radiolabeled probe for 30 min at 30 °C prior to incubation with increasing concentration of H182 at room temperature for 30 min and subjecting to EMSA analysis. Bands corresponding to Stats DNA- binding activities were scanned and quantified using ImageJ and plotted as a percentage of control (vehicle) against the concentration of the inhibitor, from which the IC50 values were derived .
A general note: A gel shift assay detects complexes by their altered migration in electrophoresis.

Data set [2] deals with MDA-MB-231 cells. In words: CyQuant viable cell number assay, MDA-MB-231. Type of data set: cell-based, human. On the procedure: (§4) CyQuant assay was performed to evaluate compounds as previously reported. Details are presented in Supplementary Information, “Methods”. […]
(§5) 1.2.6. Cell viability assays
(§6) CyQuant assay was performed to evaluate compounds as previously reported [1 -3] . Briefly, cells (5 x 10^3 per well, 100 µl) in culture in 96-well plates were treated once with 0 -10 µM concentrations of H120, H105, […]
(§7) concentration of H182 for 6 h and then treated with 0- 100 nM docetaxel or 0-20 µM cisplatin for a total of 72 h. Viable cell numbers were assessed by a CyQuant cell proliferation kit according to the manufacturer’s instructions (Thermo/Life Technologies Corp, Carlsbad, CA). Viable cell numbers were normalized to that of DMSO (control)-treated samples. […]

For data set [3], the target named is T1, Stat1:Stat3 DNA-binding activity (Mus musculus, UniProt P42227).
T1 construct: endogenous in cells; host or cells: EGF-stimulated NIH3T3/hEGFR fibroblasts (nuclear extract)
In words: EMSA of Stat1:Stat3 DNA-binding activity in nuclear extracts of EGF-stimulated NIH3T3/hEGFR. Type of data set: biochemical. The conditions noted are these: Fig. 1C, hSIE probe, 30 min. How it is done: (§8) Details are presented in Supplementary Information, “Methods”. […]
as §2, §3

In data set [4] the target is T2, Stat3:Stat3 DNA-binding activity (Mus musculus, UniProt P42227).
T2 construct: endogenous in cells; host or cells: NIH3T3/v-Src fibroblasts; EGF-stimulated NIH3T3/hEGFR fibroblasts (nuclear extracts)
In words: EMSA of Stat3:Stat3 DNA-binding activity in nuclear extracts. The conditions noted are these: for Stat3-inhibitory potency on replacing the para-fluorine: EMSA. It counts as biochemical. On the procedure:
as §8, §2, §3

Data set [5] deals with MDA-MB-468 cells. Briefly: CyQuant viable cell number assay, MDA-MB-468. Type of data set: cell-based, human. The note with it: Homo sapiens, MDA-MB-468, 72 h, read-out: IC50 viable cell numbers, MDA-MB-468. On the procedure: as §4, §5, §6, §7
The target in data set [6] is T3, Stat1:Stat1 DNA-binding activity (Mus musculus, UniProt P42225).
T3 construct: endogenous in cells; host or cells: EGF-stimulated NIH3T3/hEGFR fibroblasts (nuclear extract)
T3 sequence (P42225 2-749 limits assumed): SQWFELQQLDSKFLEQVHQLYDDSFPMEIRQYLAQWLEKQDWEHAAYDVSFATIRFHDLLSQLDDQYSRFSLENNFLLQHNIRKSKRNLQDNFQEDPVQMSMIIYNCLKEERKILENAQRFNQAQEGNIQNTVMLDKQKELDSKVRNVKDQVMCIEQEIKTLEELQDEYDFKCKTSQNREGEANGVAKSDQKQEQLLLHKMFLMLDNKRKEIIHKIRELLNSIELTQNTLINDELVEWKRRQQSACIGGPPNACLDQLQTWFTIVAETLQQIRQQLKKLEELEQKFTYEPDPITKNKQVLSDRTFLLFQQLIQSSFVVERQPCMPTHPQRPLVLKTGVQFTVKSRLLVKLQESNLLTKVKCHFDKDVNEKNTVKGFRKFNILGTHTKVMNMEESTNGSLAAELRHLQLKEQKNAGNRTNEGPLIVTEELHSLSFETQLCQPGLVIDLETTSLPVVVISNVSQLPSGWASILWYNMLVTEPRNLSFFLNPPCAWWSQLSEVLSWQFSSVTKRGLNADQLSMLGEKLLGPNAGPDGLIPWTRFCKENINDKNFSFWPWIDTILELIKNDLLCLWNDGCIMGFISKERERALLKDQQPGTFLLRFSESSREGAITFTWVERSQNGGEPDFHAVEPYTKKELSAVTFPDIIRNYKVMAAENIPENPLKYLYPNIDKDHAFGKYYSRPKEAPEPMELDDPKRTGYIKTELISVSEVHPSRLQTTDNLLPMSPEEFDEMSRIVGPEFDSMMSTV
In words: EMSA of Stat1:Stat1 DNA-binding activity in nuclear extracts of EGF-stimulated NIH3T3/hEGFR. It counts as biochemical. The conditions noted are these: Fig. 1C, 30 min. How it is done:
as §1, §2, §3

Data set [7] relates to MDA-MB-231 tumor xenografts. In words: Subcutaneous MDA-MB-231 xenografts in athymic nude mice. Type of data set: in vivo. On the procedure: Mice were housed in specific pathogen-free conditions in the animal facility. All animal experiments were conducted in accordance with the recommendations in the Guide for the Care and Use of Laboratory Animals on a protocol approved by the Institutional Animal Care and Use Committee (IACUC). Subcutaneous xenograft studies were performed as previously reported. Five-week-old female athymic nude mice were purchased from Envigo (Indianapolis, IN) or Charles River (Wilmington, MA) and maintained in the institutional animal facilities approved by the American Association for Accreditation of Laboratory Animal Care. […] Tumor sizes were monitored every 3–4 days, measured with calipers, and converted to tumor volume, V, according to the formula V = 0.52 × a^2 × b, where a, smallest superficial diameter, and b, largest superficial diameter. For each treatment group, the tumor volumes for each set of measurements were statistically analyzed relative to the control (DMSO-treated; 70% DMSO with sterile PBS) group.
Constitutively-active Stat3 promotes primary tumor development and the progression to therapy resistance. We proceeded to evaluate the in vivo antitumor efficacy against tumor growth in both human xenograft and mouse syngeneic models of TNBC. In four separate studies, we tested the efficacy of H182, H278 (HCl salt of H182), and H120. For these xenografts, the human breast cancer, MDA-MB-231 cells were injected subcutaneously into athymic nude mice. When tumors were palpable (80–120 mm^3), mice were grouped so that the mean tumor sizes were identical between groups and treated as follows: A) intraperitoneal (IP) injections of H182 at 10 mg/kg every other day for 33 days; B) oral gavage of H182 every day at 5 mg/kg for 20 days, and then increased to 20 mg/kg for additional 12 days; and C) oral gavage of H120 at 20 mg/kg, daily for 14 days, and then increased to 30 mg/kg, daily for additional 14 days.

For data set [8], the target named is SH2 domain of pure recombinant Stat3 (Homo sapiens, UniProt P40763). In words: Stat3 fluorescence polarization (FP) assay. The conditions noted are these: 0–10 μM, 5-carboxyfluorescein-GpYLPQTV-NH2 probe. Type of data set: binding. How it is done: Details are presented in Supplementary Information, “Methods”.
The Stat3:azetidine compound interaction was investigated further by focusing on how the compounds might interfere with Stat3 dimerization (Stat3:Stat3), which occurs via pTyr peptide:SH2 domain interaction. […]
confocal microscope (Stellaris 8-STED Super -resolution , Germany) with a 60x oil lens and images were processed by ImageJ software.
1.2.9. Fluorescence polarization assay (FP)
These studies were conducted as previously reported using the labeled phosphopeptide, 5-carboxyfluorescein GpYLPQTV-NH 2 (where pY represents phospho-Tyr) as probe and purified recombinant Stat3, with some modifications. […]
10 µM of unlabeled GpYLPQTV-NH 2 (positive control) or H182 at 30 °C for 30 min in the indicated assay buffer conditions, prior to the addition of the labeled probe at 10 nM final concentration and incubated for 30 min at room temperature, and thereafter reading the FP signal at 10, 30, and 60 min using the SpectraMax ID5 (Molecular Devices, San Jose, CA), with the set gain adjustment at 35 mP. In some cases, the recombinant His-Stat3 was pre-incubated with the unlabeled GpYLPQTV-NH 2 or H182 at 0-10 µM for 10 min or at 0-50 µM for 30 min prior to incubation with the labeled probe, and thereafter reading the FP signal at 10, 30, or 60 min using the SpectraMax ID5, with the set gain adjustment at 35 mP.
1.2.10. […]
(In general: Polarisation of emitted light reports the rotation of a fluorescent probe.)

Where [9] appears, read: Homo sapiens, MDA-MB-231, read-out: IC50 viable cell numbers, MDA-MB-231, CyQuant, 72 h.
The mark [10] stands for this setting: Fig. 1C, extracts of EGF-stimulated NIH3T3/hEGFR, hSIE probe, 30 min, read-out: IC50 Stat3:Stat3.
The mark [11] stands for this setting: range over the named compounds and incubation times, read-out: IC50 Stat3 DNA-binding activity in vitro (summary range).
[12] abbreviates: first Stat1:Stat1 value listed (hSIE probe).
Where [13] appears, read: second Stat1:Stat1 value listed (MGFe probe).
Setting [14] is: Table 1, replacement of p-fluorine (R1), read-out: EMSA IC50.

Where two headings read alike, the source gives them in different places. Non-standard residues stand in square brackets, D forms with d. No end group written: not given here. pY = N[C@@H](Cc1ccc(OP(=O)(O)O)cc1)C(=O)O

T2 sequence (P42227 2-770 limits assumed): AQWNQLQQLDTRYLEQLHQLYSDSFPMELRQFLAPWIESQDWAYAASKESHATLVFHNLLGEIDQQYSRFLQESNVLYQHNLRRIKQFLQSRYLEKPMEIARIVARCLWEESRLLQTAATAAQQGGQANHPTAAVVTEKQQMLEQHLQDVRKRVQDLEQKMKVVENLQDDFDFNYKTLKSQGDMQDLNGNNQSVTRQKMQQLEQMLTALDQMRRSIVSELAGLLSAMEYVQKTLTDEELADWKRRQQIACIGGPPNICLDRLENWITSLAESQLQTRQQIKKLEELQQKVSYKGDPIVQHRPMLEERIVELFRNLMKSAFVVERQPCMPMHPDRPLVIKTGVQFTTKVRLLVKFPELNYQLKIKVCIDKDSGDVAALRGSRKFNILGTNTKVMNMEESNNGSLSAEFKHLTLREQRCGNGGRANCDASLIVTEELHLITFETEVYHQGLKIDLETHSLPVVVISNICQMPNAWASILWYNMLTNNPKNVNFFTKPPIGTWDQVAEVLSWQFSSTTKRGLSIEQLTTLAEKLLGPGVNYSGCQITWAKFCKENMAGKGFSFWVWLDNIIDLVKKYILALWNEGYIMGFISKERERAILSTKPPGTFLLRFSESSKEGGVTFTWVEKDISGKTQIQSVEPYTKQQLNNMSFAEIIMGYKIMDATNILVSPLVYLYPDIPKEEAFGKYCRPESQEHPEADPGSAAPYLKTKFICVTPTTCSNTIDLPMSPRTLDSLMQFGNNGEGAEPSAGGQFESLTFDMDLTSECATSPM
T1 sequence (P42227 2-770 limits assumed, one chain of several): as the sequence (P42227 2-770 limits assumed) above
Chain of SH2 domain of pure recombinant Stat3 (P40763 whole entry, the tested form may be a part): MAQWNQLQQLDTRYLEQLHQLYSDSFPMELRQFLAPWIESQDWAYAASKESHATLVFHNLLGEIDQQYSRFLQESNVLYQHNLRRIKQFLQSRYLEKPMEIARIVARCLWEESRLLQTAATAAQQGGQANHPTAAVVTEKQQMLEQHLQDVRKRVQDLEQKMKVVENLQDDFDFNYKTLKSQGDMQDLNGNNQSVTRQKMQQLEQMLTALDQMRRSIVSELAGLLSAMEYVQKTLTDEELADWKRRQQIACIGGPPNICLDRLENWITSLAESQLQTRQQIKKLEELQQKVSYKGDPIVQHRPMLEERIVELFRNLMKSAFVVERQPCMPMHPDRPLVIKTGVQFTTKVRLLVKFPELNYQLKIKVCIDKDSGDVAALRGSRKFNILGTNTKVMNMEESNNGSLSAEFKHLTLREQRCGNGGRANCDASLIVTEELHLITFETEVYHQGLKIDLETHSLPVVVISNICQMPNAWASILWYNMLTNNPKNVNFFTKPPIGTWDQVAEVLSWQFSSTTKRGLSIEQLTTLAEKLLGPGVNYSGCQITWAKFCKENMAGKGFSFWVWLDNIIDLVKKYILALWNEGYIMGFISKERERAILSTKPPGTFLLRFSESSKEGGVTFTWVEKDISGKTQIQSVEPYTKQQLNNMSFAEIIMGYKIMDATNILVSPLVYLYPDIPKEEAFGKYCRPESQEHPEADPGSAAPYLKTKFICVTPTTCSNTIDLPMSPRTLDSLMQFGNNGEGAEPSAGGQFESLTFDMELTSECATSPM

Turning to `O=C(NO)c1ccc(N(Cc2ccc(C3CCCCC3)cc2)C(=O)[C@H]2CCN2S(=O)(=O)c2c(F)c(F)c(F)c(F)c2F)c(F)c1` [Compound H105], the IC50 in data set [1] was 20 µM; in data set [2] (setting [9]), 2.6 to 3.6 µM; in data set [3] it was 8.3 µM; in data set [4] (setting [10]), 1.8 µM; in data set [4] (setting [11]) it was 1.75 to 2.07 µM; in data set [5] it was 2.6 to 3.6 µM. Moreover, the results for the IC50 in data set [6] (setting [12]) and in data set [6] (setting [13]) were 15.8 µM and more than 20 µM, respectively.

For the compound `O=C(NO)c1ccc(N(Cc2ccc(C3CCOCC3)cc2)C(=O)[C@H]2CCN2S(=O)(=O)c2c(F)c(F)c(F)c(F)c2F)cc1O` [Compound H120], in data set [7] (H120 oral gavage daily 20 mg/kg for 14 days, then 30 mg/kg for 14 days), the “Tumor growth, MDA-MB-231 xenografts” value is “significant tumor growth inhibition”. In data set [7] (the three xenograft studies), the “Body weights and obvious signs of toxicity” value is “No notable changes”. In addition, the IC50 in data set [1] is more than 20 µM; in data set [2] (setting [9]), 2.6 to 3.6 µM; in data set [3], 7.2 µM; in data set [4] (setting [10]), 2.1 µM; in data set [4] (setting [11]), 1.75 to 2.07 µM; in data set [5], 2.6 to 3.6 µM. The IC50 in data set [6] (setting [12]) and in data set [6] (setting [13]) was more than 20 µM throughout.

For the compound `O=C(O)c1ccc(N(Cc2cnc(C3CCCCC3)cn2)C(=O)[C@H]2CCN2S(=O)(=O)c2c(F)c(F)cc(F)c2F)cc1O` [Compound H176], the “Stat3-inhibitory potency on replacing the para-fluorine” value in data set [4] is on record as “loss of Stat3-inhibitory potency”. Also, the IC50 in data set [4] (setting [14]) was more than 30 µM.

With `O=C(O)c1ccc(N(Cc2cnc(C3CCCCC3)cn2)C(=O)[C@H]2CCN2S(=O)(=O)c2c(F)c(F)c(Cl)c(F)c2F)cc1O` [Compound H186], the “Stat3-inhibitory potency on replacing the para-fluorine” value in data set [4] is given as “loss of Stat3-inhibitory potency”. Further, the IC50 in data set [4] (setting [14]) is more than 30 µM.

Consider `N.N.[Cl][Pt][Cl]` [cisplatin, reference compound], for which the IC50 in data set [2] (MDA-MB-231, DMSO or 1 μM H182 pre-treatment 6 h, then docetaxel or cisplatin, total 72 h, read-out: IC50 of chemotherapeutic agent alone or with H182) came out at 7 µM.

In the case of “GpYLPQTV-NH2 (G[pY]LPQTV-NH2) [reference compound]”, in data set [8], the “Effect on FP signal” value is given as “dose-dependent reduction of the FP signal down to the baseline of 45–50 mP”.

For the origin of these results see paper PMC9867837 (Cancer letters, 2022).
